Test: amount of tranilast in the stents, measured by high performance liquid chromatography
Assay type: physicochemical
Conditions: impregnation in stent with supercritical CO2, 40 to 140° C.
Protocol: In the experimental example 2, a plural number of luminal stents, formed of plural biodegradable polymer material, in particular plural fibers of biodegradable polymer, in which the drug was impregnated as the pressure and the temperature of CO2 were varied, were formed, and measurements were made of the amount of the drug for each of these stents.
Of the stents, obtained in Examples 14 to 25, the amount of tranilast was measured using a high performance liquid chromatography.

- thermal decomposition of drug during impregnation: without undergoing thermal decomposition
Compound: COc1ccc(C=CC(=O)Nc2ccccc2C(=O)O)cc1OC [tranilast, N-(3,4-dimethoxycinnamoyl) anthranilic acid]

From patent publication US20030104030A1, “Stent for blood vessel and material for stent for blood vessel” (priority 2002, published 2003)
